From US9995679B2, “Targeted probes of cellular physiology” (Carnegie Mellon University, priority 2010, dated 2018)
Entries after “also recorded” stand apart in the source; their conditions may differ.

Tests used:
[1] = tested on: selected modules (FAP) that activate malachite green; assay: Fluorogen activation by selected FAP modules (switching ratio); format: biochemical; conditions: in buffer
From the text: Malachite green can serve as an acceptor, as we already have selected modules that activate it with switching ratios of >15,000 fold in buffer. Additional fluorogens may be designed and synthesized. Unsymmetric polymethine dyes, and analogs of indocyanine green may be used as fluorogens, as can many of the polarity sensing dyes (e.g. merocyanine and styryl dyes) with far-red and near IR emission. Fluorogens are screened for nonspecific activation in cell lysate before incorporation into the biosensor composition. Quenching and activation by selected FAP modules are characterized in buffer and cell lysate to determine the activation ratio. FAP/biosensor pairs with acceptable switching ratios are characterized by FCS and TIRF-single molecule microscopy.

[2] = tested on: malachite green binding FAP clone; assay: Fluorescence correlation spectroscopy (FCS) of dye with MG-binding FAP; conditions: 500-fold molar excess of protein, FIG. 6
From the text: To assess the feasibility of this approach, two key criteria have been met. First, the spectral properties of Rhod-2 are almost identical to the CY3 that has already been used as a successful donor molecule. Second, the rhodamine moiety, which is structurally similar to malachite green, has been shown not to bind or block binding of the MG-binding FAP module. […] These findings support the design of this probe.

[3] = Calcium titration curve of MG-PEG7-Rhod2 sodium salt with dL5, fluorescence by plate reader; format: binding; conditions: with dL5 (tandem dimer of L5-MG E52D L91S); free Ca 0-39 μM calibration buffers; FIG. 15
Protocol: A calcium titration curve for MG-PEG7-Rhod2 sodium salt (compound 18 of Example 8, was measured.
Compound 18 and 2 μL of dL5 (A tandem dimer of L5-MG E52D L91S (FIG. 1A) separated by a G4S linker) is dissolved in each 600 μL of 0 calcium solution^1 (solution A, Invitrogen™ Cat. no. C-3008MP Calcium Calibration Buffer Kit #1) and 600 μL 39 calcium solution (solution B, Invitrogen™ Cat. no. C-3008MP Calcium Calibration Buffer Kit #1). Each volume of A and B solutions was added into 96 well black plate as described in Table 1.
And then, each solution was measured fluorescence by plate reader (TECAN safire2).

CN(C)c1ccc(C(=C2C=CC(=[N+](C)C)C=C2)c2ccccc2)cc1 [Malachite green]
switching ratio (fluorescence activation by FAP) [1]: > 15,000 fold

CCN(CC)c1ccc2c(-c3ccccc3C(=O)O)c3ccc(=[N+](CC)CC)cc-3oc2c1.[Cl-] [rhodamine B]
binding to / inhibition of MG binding of the malachite green binding FAP [2]: does not associate with the malachite green binding clone; also recorded: neither binds to nor inhibits normal binding

MG-PEG7-Rhod2 Sodium Salt [Compound 18]
mid-point for calcium binding (ratio of rhod2 excitation peak to MG excitation peak at ~640 nm vs free calcium) [3]: 0.5 micro molar
